# Patent US9944647B2 (Incyte Corporation, priority 2015, dated 2018)
# pIC50: −log10 of the molar value.
# Target: LSD-1 enzyme (Homo sapiens (Human), UniProt O60341)
# Assay: LANCE LSD1/KDM1A demethylase assay (LSD1 histone demethylase biochemical assay)
# Settings: 1 nM LSD-1 enzyme, 1 hour preincubation at 25° C., Biotin-labeled Histone H3 peptide substrate
# Protocol: Example A: LSD1 Histone Demethylase Biochemical Assay
# LANCE LSD1/KDM1A demethylase assay—10 μL of 1 nM LSD-1 enzyme (ENZO BML-SE544-0050) in the assay buffer (50 mM Tris, pH 7.5, 0.01% Tween-20, 25 mM NaCl, 5 mM DTT) were preincubated for 1 hour at 25° C. with 0.8 μL compound/DMSO dotted in black 384 well polystyrene plates. […] Reactions were stopped by addition of 10 μL 1×LANCE Detection Buffer (PerkinElmer CR97-100) supplemented with 1.5 nM Eu-anti-unmodified H3K4 Antibody (PerkinElmer TRF0404), and 225 nM LANCE Ultra Streptavidin (PerkinElmer TRF102) along with 0.9 mM Tranylcypromine-HCl (Millipore 616431). After stopping the reactions plates were incubated for 30 minutes and read on a PHERAstar FS plate reader (BMG Labtech).
row,SMILES,pIC50
1,"Cc1ccc(-c2c(-c3ccc(C#N)cc3)nc(OC[C@@H]3CCCN(C)C3)n3ccnc23)cc1 [Example 1, 4-(8-(4-methylphenyl)-5-{[(3R)-1-methylpiperidin-3-yl]methoxy}imidazo[1,2-c]pyrimidin-7-yl)benzonitrile]",≥ 7.30
2,"Cc1ccc(-c2c(-c3ccc(C#N)cc3)nc(OC[C@@H]3CCN(C)C3)n3ccnc23)cc1 [Example 2, 4-(8-(4-methylphenyl)-5-{[(3R)-1-methylpyrrolidin-3-yl]methoxy}imidazo[1,2-c]pyrimidin-7-yl)benzonitrile]",6.30 to 7.30
3,"COc1ccc(-c2c(-c3ccc(C#N)cc3)nc(OC[C@@H]3CCCN(C)C3)n3ccnc23)cn1 [Example 3, 4-(8-(6-methoxypyridin-3-yl)-5-{[(3R)-1-methylpiperidin-3-yl]methoxy}imidazo[1,2-c]pyrimidin-7-yl)benzonitrile]",≥ 7.30
4,"CN1CCC[C@@H](COc2nc(-c3ccc(C#N)cc3)c(-c3ccc(N(C)C)nc3)c3nccn23)C1 [Example 4, 4-(8-[6-(dimethylamino)pyridin-3-yl]-5-{[(3R)-1-methylpiperidin-3-yl]methoxy}imidazo[1,2-c]pyrimidin-7-yl)benzonitrile]",≥ 7.30
5,"CN1CCC[C@@H](COc2nc(-c3ccc(C#N)cc3)c(-c3ccc(N4CCCC4)nc3)c3nccn23)C1 [Example 5, 4-[5-{[(3R)-1-methylpiperidin-3-yl]methoxy}-8-(6-pyrrolidin-1-ylpyridin-3-yl)imidazo[1,2-c]pyrimidin-7-yl]benzonitrile]",≥ 7.30
6,"CN1CCC[C@@H](COc2nc(-c3ccc(C#N)cc3)c(-c3ccc4c(c3)CC(=O)N4C)c3nccn23)C1 [Example 6, 4-(8-(1-methyl-2-oxo-2,3-dihydro-1H-indol-5-yl)-5-{[(3R)-1-methylpiperidin-3-yl]methoxy}imidazo[1,2-c]pyrimidin-7-yl)benzonitrile]",6.30 to 7.30
7,"CN1CCC[C@@H](COc2nc(-c3ccc(C#N)cc3)c(-c3ccc4c(c3)oc(=O)n4C)c3nccn23)C1 [Example 7, 4-(8-(3-methyl-2-oxo-2,3-dihydro-1,3-benzoxazol-6-yl)-5-{[(3R)-1-methylpiperidin-3-yl]methoxy}imidazo[1,2-c]pyrimidin-7-yl)benzonitrile]",≥ 7.30
8,"CN1CCC[C@@H](COc2nc(-c3ccc(C#N)cc3)c(-c3ccc4c(cnn4C)c3)c3nccn23)C1 [Example 8, 4-(8-(1-methyl-1H-indazol-5-yl)-5-{[(3R)-1-methylpiperidin-3-yl]methoxy}imidazo[1,2-c]pyrimidin-7-yl)benzonitrile]",≥ 7.30
9,"CN1CCN(Cc2ccc(-c3c(-c4ccc(C#N)cc4)nc(OC[C@@H]4CCCN(C)C4)n4ccnc34)cc2)CC1 [Example 9, 4-(8-{4-[(4-methylpiperazin-1-yl)methyl]phenyl}-5-{[(3R)-1-methylpiperidin-3-yl]methoxy}imidazo[1,2-c]pyrimidin-7-yl)benzonitrile]",≥ 7.30
10,"CN1CCN(C(=O)Cc2ccc(-c3c(-c4ccc(C#N)cc4)nc(OC[C@@H]4CCCN(C)C4)n4ccnc34)cc2)CC1 [Example 10, 4-(8-{4-[2-(4-methylpiperazin-1-yl)-2-oxoethyl]phenyl}-5-{[(3R)-1-methylpiperidin-3-yl]methoxy}imidazo[1,2-c]pyrimidin-7-yl)benzonitrile]",≥ 7.30
11,"CN1CCC[C@@H](COc2nc(-c3ccc(C#N)cc3)c(-c3ccc(CCN4CCOCC4)cc3)c3nccn23)C1 [Example 11, 4-{5-{[(3R)-1-methylpiperidin-3-yl]methoxy}-8-[4-(2-morpholin-4-ylethyl)phenyl]imidazo[1,2-c]pyrimidin-7-yl}benzonitrile]",6.30 to 7.30
12,"CN1CCC[C@@H](COc2nc(-c3ccc(C#N)cc3)c(-c3ccc(CN4CCOCC4)cc3)c3nccn23)C1 [Example 12, 4-{5-{[(3R)-1-methylpiperidin-3-yl]methoxy}-8-[4-(morpholin-4-ylmethyl)phenyl]imidazo[1,2-c]pyrimidin-7-yl}benzonitrile]",6.30 to 7.30
13,"CN1CCC[C@@H](COc2nc(-c3ccc(C#N)cc3)c(-c3ccc(CN4CC[C@H](C#N)C4)cc3)c3nccn23)C1 [Example 13, (3S)-1-[4-(7-(4-cyanophenyl)-5-{[(3R)-1-methylpiperidin-3-yl]methoxy}imidazo[1,2-c]pyrimidin-8-yl)benzyl]pyrrolidine-3-carbonitrile]",≥ 7.30
14,"CN1CCC[C@@H](COc2nc(-c3ccc(C#N)cc3)c(-c3cnc4c(c3)OCCN4C)c3nccn23)C1 [Example 14, 4-(8-(4-methyl-3,4-dihydro-2H-pyrido[3,2-b][1,4]oxazin-7-yl)-5-{[(3R)-1-methylpiperidin-3-yl]methoxy}imidazo[1,2-c]pyrimidin-7-yl)benzonitrile]",≥ 7.30
15,"CN1CCC[C@@H](COc2nc(-c3ccc(C#N)cc3)c(-c3ccc4c(c3)OCC(=O)N4C)c3nccn23)C1 [Example 15, 4-(8-(4-methyl-3-oxo-3,4-dihydro-2H-1,4-benzoxazin-7-yl)-5-{[(3R)-1-methylpiperidin-3-yl]methoxy}imidazo[1,2-c]pyrimidin-7-yl)benzonitrile]",6.30 to 7.30
16,"CN1CCC[C@@H](COc2nc(-c3ccc(C#N)cc3)c(-c3ccc(N4CCCC4=O)nc3)c3nccn23)C1 [Example 16, 4-{5-{[(3R)-1-methylpiperidin-3-yl]methoxy}-8-[6-(2-oxopyrrolidin-1-yl)pyridin-3-yl]imidazo[1,2-c]pyrimidin-7-yl}benzonitrile]",6.30 to 7.30
17,"CN1CCC[C@@H](COc2nc(-c3ccc(C#N)cc3)c(-c3ccc4c(c3)ncn4C)c3nccn23)C1 [Example 17, 4-(8-(1-methyl-1H-benzimidazol-5-yl)-5-{[(3R)-1-methylpiperidin-3-yl]methoxy}imidazo[1,2-c]pyrimidin-7-yl)benzonitrile]",≥ 7.30
18,"CN1CCC[C@@H](COc2nc(-c3ccc(C#N)cc3)c(-c3ccc4cnn(C)c4c3)c3nccn23)C1 [Example 18, 4-(8-(1-methyl-1H-indazol-6-yl)-5-{[(3R)-1-methylpiperidin-3-yl]methoxy}imidazo[1,2-c]pyrimidin-7-yl)benzonitrile]",6.30 to 7.30
19,"CN1CCC[C@@H](COc2nc(-c3ccc(C#N)cc3)c(-c3cnc4c(ccn4C)c3)c3nccn23)C1 [Example 19, 4-[5-{[(3R)-1-methylpiperidin-3-yl]methoxy}-8-(1-methyl-1H-pyrrolo[2,3-b]pyridin-5-yl)imidazo[1,2-c]pyrimidin-7-yl]benzonitrile]",≥ 7.30
20,"CN1CCC[C@@H](COc2nc(-c3ccc(C#N)cc3)c(-c3ccc4c(c3)CC(C(=O)N(C)C)O4)c3nccn23)C1 (stereo partly drawn) [Example 20, 5-(7-(4-cyanophenyl)-5-{[(3R)-1-methylpiperidin-3-yl]methoxy}imidazo[1,2-c]pyrimidin-8-yl)-N,N-dimethyl-2,3-dihydro-1-benzofuran-2-carboxamide]",≥ 7.30
21,"CN1CC[C@@H](COc2nc(-c3ccc(C#N)cc3)c(-c3ccc(N(C)C)nc3)c3nccn23)C1 [Example 21, 4-(8-[6-(dimethylamino)pyridin-3-yl]-5-{[(3R)-1-methylpyrrolidin-3-yl]methoxy}imidazo[1,2-c]pyrimidin-7-yl)benzonitrile]",6.30 to 7.30
22,"CN1CC[C@@H](COc2nc(-c3ccc(C#N)cc3)c(-c3ccc(N4CCCC4)nc3)c3nccn23)C1 [Example 22, 4-[5-{[(3R)-1-methylpyrrolidin-3-yl]methoxy}-8-(6-pyrrolidin-1-ylpyridin-3-yl)imidazo[1,2-c]pyrimidin-7-yl]benzonitrile]",6.30 to 7.30
23,"CN1CC[C@@H](COc2nc(-c3ccc(C#N)cc3)c(-c3ccc4c(c3)CC(=O)N4C)c3nccn23)C1 [Example 23, 4-(8-(1-methyl-2-oxo-2,3-dihydro-1H-indol-5-yl)-5-{[(3R)-1-methylpyrrolidin-3-yl]methoxy}imidazo[1,2-c]pyrimidin-7-yl)benzonitrile]",6.30 to 7.30
24,"CN1CC[C@@H](COc2nc(-c3ccc(C#N)cc3)c(-c3cnc4c(c3)OCCN4C)c3nccn23)C1 [Example 24, 4-(8-(4-methyl-3,4-dihydro-2H-pyrido[3,2-b][1,4]oxazin-7-yl)-5-{[(3R)-1-methylpyrrolidin-3-yl]methoxy}imidazo[1,2-c]pyrimidin-7-yl)benzonitrile]",≥ 7.30
25,"CN1CC[C@@H](COc2nc(-c3ccc(C#N)cc3)c(-c3ccc4c(c3)ncn4C)c3nccn23)C1 [Example 25, 4-(8-(1-methyl-1H-benzimidazol-5-yl)-5-{[(3R)-1-methylpyrrolidin-3-yl]methoxy}imidazo[1,2-c]pyrimidin-7-yl)benzonitrile]",6.30 to 7.30
26,"CN1CC[C@@H](COc2nc(-c3ccc(C#N)cc3)c(-c3ccc4c(c3)oc(=O)n4C)c3nccn23)C1 [Example 26, 4-(8-(3-methyl-2-oxo-2,3-dihydro-1,3-benzoxazol-6-yl)-5-{[(3R)-1-methylpyrrolidin-3-yl]methoxy}imidazo[1,2-c]pyrimidin-7-yl)benzonitrile]",6.30 to 7.30
27,"CN1CC[C@@H](COc2nc(-c3ccc(C#N)cc3)c(-c3ccc4c(cnn4C)c3)c3nccn23)C1 [Example 27, 4-(8-(1-methyl-1H-indazol-5-yl)-5-{[(3R)-1-methylpyrrolidin-3-yl]methoxy}imidazo[1,2-c]pyrimidin-7-yl)benzonitrile]",≥ 7.30
28,"CN1CCC[C@@H](COc2nc(-c3ccc(C#N)cc3)c(-c3cnc4c(cnn4C)c3)c3nccn23)C1 [Example 28, 4-[5-{[(3R)-1-methylpiperidin-3-yl]methoxy}-8-(1-methyl-1H-pyrazolo[3,4-b]pyridin-5-yl)imidazo [1,2-c]pyrimidin-7-yl]benzonitrile]",≥ 7.30
